The text below walks through data of US20240270809A1, “ORAL GLP RECEPTOR AGONISTS” (priority 2020, published 2024).

The nature of data set [1]: Stability of peptides in Fasted-State Simulated Intestinal Fluid (FaSSIF). The format is in vitro ADME. As to conditions: FaSSIF with 10 mg/ml pancreatin, 37° C.; for remaining at 0.5 h: t=30 mins, pH 6.5, 10 mg/ml pancreatin.
A further data set has as its target T1, mouse GLP2 receptor (Mus musculus, UniProt Q5IXF8).
T1 construct: expressed in transfected cells; host or cells: HEK cells, transient transfection with GeneJuice
T1 sequence (Q5IXF8 1-512): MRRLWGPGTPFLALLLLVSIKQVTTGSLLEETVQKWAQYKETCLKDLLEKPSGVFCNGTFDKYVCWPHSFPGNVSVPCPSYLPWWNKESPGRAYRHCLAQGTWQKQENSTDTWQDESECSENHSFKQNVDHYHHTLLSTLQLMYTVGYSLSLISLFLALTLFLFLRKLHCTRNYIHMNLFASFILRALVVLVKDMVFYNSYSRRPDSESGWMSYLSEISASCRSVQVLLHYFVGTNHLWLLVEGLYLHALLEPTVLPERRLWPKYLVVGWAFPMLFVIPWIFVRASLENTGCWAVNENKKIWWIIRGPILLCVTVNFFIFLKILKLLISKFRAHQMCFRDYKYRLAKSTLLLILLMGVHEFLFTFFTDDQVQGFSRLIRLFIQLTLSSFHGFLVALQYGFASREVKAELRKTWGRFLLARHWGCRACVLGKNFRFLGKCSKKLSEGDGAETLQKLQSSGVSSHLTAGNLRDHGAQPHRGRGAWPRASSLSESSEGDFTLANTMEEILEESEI
Briefly: cAMP accumulation assay, functional agonism of mouse GLP2 receptor. As to conditions: HEK cells transiently transfected with mouse GLP2 receptor, HTRF cAMP; for Emax: HEK293, read-out: Mouse GLP-2R agonist cAMP Emax; for EC50: read-out: Mouse GLP-2R agonist cAMP pEC50 (converted). It is filed as cell-based. Summed up:
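Transiently transfected HEK cells (24 h, frozen, 8000/well) in HBSS with 0.5 mM IBMX exposed to compound concentration series for 45 min at 37 °C. cAMP measured by HTRF after lysis and 1 h at RT; pEC50 from four-parameter concentration-response fit.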

Another data set has as its target T2, human GLP2 receptor (Homo sapiens, UniProt O95838).
T2 construct: expressed in transfected cells; host or cells: HEK cells, BacMam virus transduction
T2 sequence (O95838 1-553): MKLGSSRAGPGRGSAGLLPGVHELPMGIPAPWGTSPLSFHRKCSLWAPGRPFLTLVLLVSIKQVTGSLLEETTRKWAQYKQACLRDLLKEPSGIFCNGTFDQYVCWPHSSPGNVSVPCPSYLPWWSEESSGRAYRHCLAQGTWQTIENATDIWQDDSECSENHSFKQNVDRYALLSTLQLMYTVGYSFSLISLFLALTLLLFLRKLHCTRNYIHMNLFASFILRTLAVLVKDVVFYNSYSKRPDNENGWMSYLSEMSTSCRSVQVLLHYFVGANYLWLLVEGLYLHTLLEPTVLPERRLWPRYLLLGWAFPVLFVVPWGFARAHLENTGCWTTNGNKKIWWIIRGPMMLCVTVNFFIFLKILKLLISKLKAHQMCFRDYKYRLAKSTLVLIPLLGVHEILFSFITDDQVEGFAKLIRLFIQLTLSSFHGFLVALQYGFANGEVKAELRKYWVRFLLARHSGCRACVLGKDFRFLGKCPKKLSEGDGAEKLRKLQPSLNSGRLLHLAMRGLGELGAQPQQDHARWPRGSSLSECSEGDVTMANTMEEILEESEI
In words: cAMP accumulation assay, functional agonism of human GLP2 receptor. The format is cell-based. To be noted: HEK cells infected with human GLP2 receptor BacMam virus, HTRF cAMP; for Emax: HEK293, read-out: Human GLP-2R agonist cAMP Emax; for EC50: read-out: Human GLP-2R agonist cAMP pEC50 (converted). The procedure, abridged:
(§1)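 Steps: infect HEK cells with human GLP1 or GLP2 receptor BacMam for 24 hours; freeze; resuspend in HBSS with 0.5 mM IBMX; incubate with agonist 45 min at 37° C; lyse with HTRF detection reagents and read cAMP.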

Data set [2] in a line: Stability of peptides in rat intestinal fluid (ratIF). As to conditions: Sprague Dawley, undiluted rat small intestinal fluid (ratIF).
The nature of data set [3]: Stability of peptides in Fasted-State Simulated Gastric Fluid (FaSSGF). It is filed as in vitro ADME. As to conditions: FaSSGF with 0.1 mg/ml pepsin; t=30 mins, 37° C., pH 1.6, 0.1 mg/ml pepsin.
Description: Stability of peptides was tested in Fasted-State Simulated gastric Fluid (FaSSGF) prepared according to manufacturer's protocol (Biorelevant, art. no. FFF01). […] FaSSGF was pre-incubated for 15 min at 37° C. and spiked with test and reference item working solutions. Experiments were conducted in duplicate in a non-serial manner. The total incubation volume per replicate was 150 μl. […] All samples and calibration standards (prepared in FaSSGF) were precipitated by addition of 300 μl precipitant (ACN / 2% acetic acid / 0.2% HFBA, (precipitation regent, PR)) containing internal standards (ISTD) to 150 μl sample. After incubation for 1 h at room temperature all samples were centrifuged for 10 min at 2,200×g (room temperature).
A further data set concerns the target T3, human GLP1 receptor (Homo sapiens, UniProt P43220).
T3 construct: expressed in transfected cells; host or cells: HEK cells, BacMam virus transduction
In words: cAMP accumulation assay, functional agonism of human GLP1 receptor. The format is cell-based. As to conditions: HEK cells infected with human GLP1 receptor BacMam virus, HTRF cAMP; for Emax: HEK293, read-out: Human GLP-1R agonist cAMP Emax; for EC50: read-out: Human GLP-1R agonist cAMP pEC50 (converted). The procedure, abridged: as §1

Each structure is given as a SMILES string. Positions of bridges follow the written chain, without caps; N, C: chain ends. Non-standard residues stand in square brackets, D forms with d. Residues, ends and D or L forms follow the SMILES beside them. *: point of attachment. Malonyl(2,2-Me2,histaminyl) = CC(C)(C(=O)NCCc1cnc[nH]1)C(=O)*; Ala(1H-tetrazol-5-yl) = N[C@@H](Cc1nnn[nH]1)C(=O)O; αMeL = CC(C)C[C@](C)(N)C(=O)O; Nle = CCCC[C@H](N)C(=O)O; Aib = CC(C)(N)C(=O)O

T3 sequence (P43220 24-463): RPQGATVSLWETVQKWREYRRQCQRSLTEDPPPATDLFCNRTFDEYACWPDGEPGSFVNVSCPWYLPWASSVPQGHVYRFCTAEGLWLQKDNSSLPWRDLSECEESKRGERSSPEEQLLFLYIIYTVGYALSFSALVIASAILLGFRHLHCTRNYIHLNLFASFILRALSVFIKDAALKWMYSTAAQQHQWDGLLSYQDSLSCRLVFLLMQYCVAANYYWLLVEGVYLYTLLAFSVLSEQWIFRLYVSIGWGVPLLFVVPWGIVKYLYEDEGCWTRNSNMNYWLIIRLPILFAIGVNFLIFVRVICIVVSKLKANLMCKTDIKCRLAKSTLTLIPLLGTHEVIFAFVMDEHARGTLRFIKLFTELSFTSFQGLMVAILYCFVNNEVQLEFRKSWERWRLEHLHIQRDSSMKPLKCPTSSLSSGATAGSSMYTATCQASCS

Consider `CCCC[C@@H]1NC(=O)[C@H](CCC(=O)O)NC(=O)[C@@H](NC(=O)[C@H](CO)NC(=O)[C@H](Cc2ccccc2)NC(=O)[C@H](CO)NC(=O)[C@@H](C)NC(=O)[C@H](Cc2nn[nH]n2)NC(=O)C(C)(C)C(=O)NCCc2c[nH]cn2)CCCCNC(=O)C[C@@H](C(=O)N[C@H](C(=O)N[C@@H](CC(C)C)C(=O)N[C@@H](CC(=O)O)C(=O)N[C@H]2CCC(=O)NCCCC[C@@H](C(=O)N[C@@H](CC(=O)O)C(=O)N[C@@H](Cc3ccccc3)C(=O)N[C@H](C(=O)N[C@H]3CCCCNC(=O)C[C@@H](C(=O)N[C@H](C(=O)N[C@H]4CCC(=O)NCCCC[C@@H](C(N)=O)NC(=O)[C@H]([C@@H](C)O)NC(=O)[C@H]([C@@H](C)CC)NC4=O)[C@@H](C)O)NC(=O)[C@H]([C@@H](C)CC)NC(=O)[C@H](CC(C)C)NC(=O)[C@H](Cc4c[nH]c5ccccc45)NC3=O)[C@@H](C)CC)NC(=O)[C@H](C)NC(=O)[C@H](C)NC(=O)[C@H](CCCCN)NC2=O)[C@@H](C)CC)NC(=O)[C@@H](Cc2ccccc2)NC1=O` [Example 38] ({Malonyl(2,2-Me2,histaminyl)}-[Ala(1H-tetrazol-5-yl)][dA]SFSKE[Nle][dF]DILDEKAAKDFIKWLIDTEITK-NH2; lactam 6-10, 14-18, 22-26, 28-31 (inferred); C-terminus assumed), for which the amount remaining at 0.5 h in data set [1] was 61.3%; in data set [2], 33.4%; in data set [3] it was 100%. In addition, the Emax at mouse GLP2 receptor is 99%; at human GLP2 receptor, 105%; at human GLP1 receptor it was 88.8%. Further, the EC50 was 3160 pM on mouse GLP2 receptor, 12.6 pM at human GLP2 receptor and 501 pM at human GLP1 receptor.
On to `CCCC[C@H](NC(=O)[C@H](CCC(=O)O)NC(=O)[C@@H]1CC(=O)NCCCC[C@H](NC(=O)[C@H](Cc2nn[nH]n2)NC(=O)C(C)(C)C(=O)NCCc2c[nH]cn2)C(=O)N[C@@H](CO)C(=O)N[C@@H](Cc2ccccc2)C(=O)N[C@@H](CO)C(=O)N1)C(=O)N[C@H](Cc1ccccc1)C(=O)N[C@H](C(=O)N[C@@](C)(CC(C)C)C(=O)N[C@@H](CC(C)C)C(=O)N[C@@H](CC(=O)O)C(=O)N[C@H]1CCC(=O)NCCCC[C@@H](C(=O)N[C@@H](CC(=O)O)C(=O)N[C@@H](Cc2ccccc2)C(=O)N[C@H](C(=O)N[C@H]2CCC(=O)NCCCC[C@@H](C(=O)N[C@H]3CCC(=O)NCCCC[C@@H](C(N)=O)NC(=O)[C@H]([C@@H](C)O)NC(=O)[C@H]([C@@H](C)CC)NC(=O)[C@H](CCCCN)NC3=O)NC(=O)[C@H]([C@@H](C)CC)NC(=O)[C@H](CC(C)C)NC(=O)[C@H](Cc3c[nH]c4ccccc34)NC2=O)[C@@H](C)CC)NC(=O)[C@H](C)NC(=O)[C@H](C)NC(=O)[C@H](CCCCN)NC1=O)[C@@H](C)O` [Example 45] ({Malonyl(2,2-Me2,histaminyl)}-[Ala(1H-tetrazol-5-yl)]KSFSDE[Nle][dF]T[αMeL]LDEKAAKDFIEWLIKEKITK-NH2; lactam 2-6, 14-18, 22-26, 27-31 (inferred); C-terminus assumed), for which the amount remaining at 0.5 h in data set [1] was 95.3%; in data set [2], 62.4%; in data set [3] it was 100%. Also, the Emax amounted to 104% at human GLP2 receptor and 96.5% at human GLP1 receptor. The EC50 on human GLP2 receptor was 50.1 pM; on human GLP1 receptor, 200 pM.
For `CCCC[C@H](NC(=O)[C@H](CCC(=O)O)NC(=O)[C@@H]1CC(=O)NCCCC[C@H](NC(=O)[C@H](CC(=O)O)NC(=O)C(C)(C)NC(=O)[C@@H](N)Cc2c[nH]cn2)C(=O)N[C@@H](CO)C(=O)N[C@@H](Cc2ccccc2)C(=O)N[C@@H](CO)C(=O)N1)C(=O)N[C@H](Cc1ccccc1)C(=O)N[C@H](C(=O)N[C@@](C)(CC(C)C)C(=O)N[C@@H](CC(C)C)C(=O)N[C@@H](CC(=O)O)C(=O)N[C@H]1CCC(=O)NCCCC[C@@H](C(=O)N[C@@H](CC(=O)O)C(=O)N[C@@H](Cc2ccccc2)C(=O)N[C@H](C(=O)N[C@H]2CCC(=O)NCCCC[C@@H](C(=O)N[C@H]3CCC(=O)NCCCC[C@@H](C(N)=O)NC(=O)[C@H]([C@@H](C)O)NC(=O)[C@H]([C@@H](C)CC)NC(=O)[C@H](CCCCN)NC3=O)NC(=O)[C@H]([C@@H](C)CC)NC(=O)[C@H](CC(C)C)NC(=O)[C@H](Cc3c[nH]c4ccccc34)NC2=O)[C@@H](C)CC)NC(=O)[C@H](C)NC(=O)[C@H](C)NC(=O)[C@H](CCCCN)NC1=O)[C@@H](C)O` [Example 46] (H-H[Aib]DKSFSDE[Nle][dF]T[αMeL]LDEKAAKDFIEWLIKEKITK-NH2; lactam 4-8, 16-20, 24-28, 29-33 (inferred); C-terminus assumed), the amount remaining at 0.5 h in data set [1] is 95.3%; in data set [3], 100%. Besides, the Emax at mouse GLP2 receptor came out at 101%; at human GLP2 receptor, 105%; at human GLP1 receptor, 97.8%. Besides, the figures for the EC50 on mouse GLP2 receptor, at human GLP2 receptor and at human GLP1 receptor were 10000 pM, 25.1 pM and 126 pM, respectively.
For `CC[C@H](C)[C@H](NC(=O)[C@H](Cc1ccccc1)NC(=O)[C@H](CC(=O)O)NC(=O)[C@H](CCCNC(=N)N)NC(=O)[C@H](C)NC(=O)[C@H](C)NC(=O)[C@H](CC(C)C)NC(=O)[C@H](CC(N)=O)NC(=O)[C@H](CC(=O)O)NC(=O)[C@H](CC(C)C)NC(=O)[C@@H](NC(=O)[C@@H](NC(=O)[C@H](CC(N)=O)NC(=O)[C@H](CCSC)NC(=O)[C@H](CCC(=O)O)NC(=O)[C@H](CC(=O)O)NC(=O)[C@H](CO)NC(=O)[C@H](Cc1ccccc1)NC(=O)[C@H](CO)NC(=O)CNC(=O)[C@H](CC(=O)O)NC(=O)CNC(=O)[C@@H](N)Cc1c[nH]cn1)[C@@H](C)O)[C@@H](C)CC)C(=O)N[C@@H](CC(N)=O)C(=O)N[C@@H](Cc1c[nH]c2ccccc12)C(=O)N[C@@H](CC(C)C)C(=O)N[C@H](C(=O)N[C@@H](CCC(N)=O)C(=O)N[C@H](C(=O)N[C@@H](CCCCN)C(=O)N[C@H](C(=O)N[C@H](C(=O)N[C@@H](CC(=O)O)C(=O)O)[C@@H](C)O)[C@@H](C)CC)[C@@H](C)O)[C@@H](C)CC` [Teduglutide, reference compound], the fraction remaining at 0.25 h in data set [1] (FaSSIF pH 6.5 with 10 mg/ml pancreatin, t = 15 mins) was 1.2%; in data set [2], 5.7%. Further, the amount remaining at 0.5 h in data set [1] is 1.7%; in data set [2] it was 1.3%; in data set [3] it was 9.2%.
